Experimental data reported in US6777425B2, “Isoquinoline compounds having antiinfective activity” (Genesoft Pharmaceuticals, Inc., priority 2001, dated 2004).

What was measured:
S. aureus ATCC 27660 = experiment: NCCLS broth microdilution MIC, S. aureus (MRSA); assay type: cell-based, Staphylococcus aureus; conditions: organism F = S. aureus ATCC 27660 (MRSA)
Text: (§1) Compounds according to this invention were screened for their in vitro activities against selected species of bacteria and fungi. […]

S. aureus ATCC 13709 = experiment: NCCLS broth microdilution MIC, S. aureus (MSSA); assay type: cell-based, Staphylococcus aureus; conditions: organism E = S. aureus ATCC 13709 (MSSA)
Text: as §1

S. pneumoniae ATCC 51422 = experiment: NCCLS broth microdilution MIC, S. pneumoniae (PRSP); assay type: cell-based, Streptococcus pneumoniae; conditions: organism I = S. pneumoniae ATCC 51422 (PRSP)
Text: as §1

[1] = system: S. epidermidis ATCC 12228; experiment: NCCLS broth microdilution MIC, S. epidermidis; assay type: cell-based, Staphylococcus epidermidis; conditions: organism G = S. epidermidis ATCC 12228
Text: as §1

C. albicans ATCC 38247 = experiment: Antifungal MIC, C. albicans; assay type: cell-based, Candida albicans; conditions: organism B = C. albicans ATCC 38247
Text: as §1

S. pneumoniae ATCC 49619 = experiment: NCCLS broth microdilution MIC, S. pneumoniae ATCC 49619; assay type: cell-based, Streptococcus pneumoniae; conditions: organism H = S. pneumoniae ATCC 49619
Text: as §1

E. faecalis ATCC 29212 = experiment: NCCLS broth microdilution MIC, E. faecalis; assay type: cell-based; conditions: organism C = E. faecalis ATCC 29212
Text: as §1

E. faecium ATCC 51559 = experiment: NCCLS broth microdilution MIC, E. faecium (VRE); assay type: cell-based, Enterococcus faecium; conditions: organism D = E. faecium ATCC 51559 (VRE)
Text: as §1

B. cereus ATCC 11778 = experiment: NCCLS broth microdilution MIC, B. cereus; assay type: cell-based, Bacillus cereus; conditions: organism A = B. cereus ATCC 11778
Text: as §1

[2] = Staphylococcus aureus, read-out: Minimum Inhibitory Concentration (MIC)

Row | Minimum Inhibitory Concentration (MIC) (S. aureus ATCC 27660) | Minimum Inhibitory Concentration (MIC) (S. aureus ATCC 13709) | Minimum Inhibitory Concentration (MIC) (S. pneumoniae ATCC 51422) | Minimum Inhibitory Concentration (MIC) [1] | Minimum Inhibitory Concentration (MIC) (C. albicans ATCC 38247) | Minimum Inhibitory Concentration (MIC) (S. pneumoniae ATCC 49619) | Minimum Inhibitory Concentration (MIC) (E. faecalis ATCC 29212) | Minimum Inhibitory Concentration (MIC) (E. faecium ATCC 51559) | Minimum Inhibitory Concentration (MIC) (B. cereus ATCC 11778) | MIC (S. aureus ATCC 27660; [2]) [µg/mL] | MIC (S. aureus ATCC 13709; [2]) [µg/mL] | MIC (C. albicans ATCC 38247; Candida albicans, ATCC38247, read-out: Minimum Inhibitory Concentration (MIC)) [µg/mL] | MIC (S. pneumoniae ATCC 49619; Streptococcus pneumoniae, ATCC49619, read-out: Minimum Inhibitory Concentration (MIC)) [µg/mL] | MIC (E. faecalis ATCC 29212; Enterococcus faecalis, ATCC29212, read-out: Minimum Inhibitory Concentration (MIC)) [µg/mL] | MIC (B. cereus ATCC 11778; Bacillus cereus, ATCC11778, read-out: Minimum Inhibitory Concentration (MIC)) [µg/mL] | Compound
1 | +++ (+++ = MIC ≦ 4) | +++ (+++ = MIC ≦ 4) | +++ (+++ = MIC ≦ 4) | +++ (+++ = MIC ≦ 4) | >32 µg/mL | +++ (+++ = MIC ≦ 4) | +++ (+++ = MIC ≦ 4) | +++ (+++ = MIC ≦ 4) | +++ (+++ = MIC ≦ 4) |  |  |  |  |  |  | Cn1cc(NC(=O)c2cc(NC(=O)c3cc(NC(=O)c4cc5ccccc5cn4)c[nH]3)cn2C)cc1C(=O)NCCN1CCOCC1 [Ib-50]
2 | +++ (+++ = MIC ≦ 4) | +++ (+++ = MIC ≦ 4) |  |  | + (+ = 12 ≦ MIC ≦ 32) | +++ (+++ = MIC ≦ 4) | +++ (+++ = MIC ≦ 4) |  | +++ (+++ = MIC ≦ 4) |  |  |  |  |  |  | CN(C)CCCn1cc(NC(=O)c2cc(NC(=O)c3cc4ccccc4cn3)cn2C)cc1C(=O)Nc1cc(C(=O)NCCN2CCOCC2)n(C)c1 [Ib-81]
3 | +++ (+++ = MIC ≦ 4) | +++ (+++ = MIC ≦ 4) |  |  | + (+ = 12 ≦ MIC ≦ 32) | +++ (+++ = MIC ≦ 4) | +++ (+++ = MIC ≦ 4) |  | +++ (+++ = MIC ≦ 4) |  |  |  |  |  |  | CN(C)CCCn1cc(NC(=O)c2cc(NC(=O)c3cc4ccccc4cn3)c[nH]2)cc1C(=O)Nc1cc(C(=O)NCCN2CCOCC2)n(C)c1 [Ib-82]
4 | +++ (+++ = MIC ≦ 4) | +++ (+++ = MIC ≦ 4) | +++ (+++ = MIC ≦ 4) |  | >32 µg/mL | +++ (+++ = MIC ≦ 4) | +++ (+++ = MIC ≦ 4) |  | +++ (+++ = MIC ≦ 4) |  |  |  |  |  |  | C[C@@H]1CCC[C@H](C)N1CCNC(=O)c1cc(NC(=O)c2ccc(NC(=O)c3cc(NC(=O)c4cc5ccccc5cn4)cn3C)cc2)cn1C [Ic-6]
5 | +++ (+++ = MIC ≦ 4) | +++ (+++ = MIC ≦ 4) |  |  | >32 µg/mL | +++ (+++ = MIC ≦ 4) | +++ (+++ = MIC ≦ 4) |  | +++ (+++ = MIC ≦ 4) |  |  |  |  |  |  | Cn1cc(NC(=O)c2ccc(NC(=O)c3cc(NC(=O)c4cc5ccccc5cn4)cn3C)cc2)cc1C(=O)NCCN1CCC(O)CC1 [Ic-8]
6 | +++ (+++ = MIC ≦ 4) | +++ (+++ = MIC ≦ 4) |  |  | >32 µg/mL | +++ (+++ = MIC ≦ 4) | +++ (+++ = MIC ≦ 4) |  | +++ (+++ = MIC ≦ 4) |  |  |  |  |  |  | Cn1cc(NC(=O)c2ccc(NC(=O)c3cc(NC(=O)c4cc5ccccc5cn4)cn3C)cc2)cc1C(=O)NCCN1CCCC1 [Ic-10]
7 | +++ (+++ = MIC ≦ 4) | +++ (+++ = MIC ≦ 4) |  |  | >32 µg/mL | +++ (+++ = MIC ≦ 4) | +++ (+++ = MIC ≦ 4) |  | >32 µg/mL |  |  |  |  |  |  | Cn1cc(NC(=O)c2ccc(NC(=O)c3cc(NC(=O)c4cc5ccccc5cn4)cn3C)cc2)cc1C(=O)NCCCN1CCOCC1 [Ic-11]
8 | +++ (+++ = MIC ≦ 4) | +++ (+++ = MIC ≦ 4) |  |  | >32 µg/mL | +++ (+++ = MIC ≦ 4) | >32 µg/mL |  | >32 µg/mL |  |  |  |  |  |  | CN1CCN(CCNC(=O)c2cc(NC(=O)c3ccc(NC(=O)c4cc(NC(=O)c5cc6ccccc6cn5)cn4C)cc3)cn2C)CC1 [Ic-14]
9 | +++ (+++ = MIC ≦ 4) | +++ (+++ = MIC ≦ 4) |  |  | >32 µg/mL | +++ (+++ = MIC ≦ 4) | +++ (+++ = MIC ≦ 4) |  | +++ (+++ = MIC ≦ 4) |  |  |  |  |  |  | CC1CN(CCNC(=O)c2cc(NC(=O)c3ccc(NC(=O)c4cc(NC(=O)c5cc6ccccc6cn5)cn4C)cc3)cn2C)CC(C)O1 (stereo not shown) [Ic-17]
10 |  |  |  |  |  |  |  |  |  | < 4 | < 4 | > 32 | < 4 | < 4 | < 4 | Cn1cc(NC(=O)c2cc3ccccc3cn2)cc1C(=O)Nc1cc(C(=O)Nc2ccc3sc(C(=O)NCCN4CCOCC4)cc3c2)n(C)c1 [Id-1]

Continued, compound first:

Row | Compound | Minimum Inhibitory Concentration (MIC) (S. aureus ATCC 27660) | Minimum Inhibitory Concentration (MIC) (S. aureus ATCC 13709) | Minimum Inhibitory Concentration (MIC) (S. pneumoniae ATCC 51422) | Minimum Inhibitory Concentration (MIC) [1] | Minimum Inhibitory Concentration (MIC) (C. albicans ATCC 38247) | Minimum Inhibitory Concentration (MIC) (S. pneumoniae ATCC 49619) | Minimum Inhibitory Concentration (MIC) (E. faecalis ATCC 29212) | Minimum Inhibitory Concentration (MIC) (E. faecium ATCC 51559) | Minimum Inhibitory Concentration (MIC) (B. cereus ATCC 11778) | MIC (S. aureus ATCC 27660; [2]) [µg/mL] | MIC (S. aureus ATCC 13709; [2]) [µg/mL] | MIC (C. albicans ATCC 38247; Candida albicans, ATCC38247, read-out: Minimum Inhibitory Concentration (MIC)) [µg/mL] | MIC (S. pneumoniae ATCC 49619; Streptococcus pneumoniae, ATCC49619, read-out: Minimum Inhibitory Concentration (MIC)) [µg/mL] | MIC (E. faecalis ATCC 29212; Enterococcus faecalis, ATCC29212, read-out: Minimum Inhibitory Concentration (MIC)) [µg/mL] | MIC (B. cereus ATCC 11778; Bacillus cereus, ATCC11778, read-out: Minimum Inhibitory Concentration (MIC)) [µg/mL]
11 | CN(C)CCSCCn1cc(NC(=O)c2cc3ccccc3cn2)cc1C(=O)Nc1cc(C(=O)Nc2cc(C(=O)NCCN3CCSCC3)n(C)c2)n(C)c1 [Ib-80] | +++ (+++ = MIC ≦ 4) | +++ (+++ = MIC ≦ 4) |  |  | +++ (+++ = MIC ≦ 4) | +++ (+++ = MIC ≦ 4) | +++ (+++ = MIC ≦ 4) |  | +++ (+++ = MIC ≦ 4) |  |  |  |  |  | 
12 | CCN(CC)CCNC(=O)c1cc(NC(=O)c2cc(NC(=O)c3cc(NC(=O)c4cc5ccccc5cn4)cn3C)c[nH]2)cn1C [Ib-89] | +++ (+++ = MIC ≦ 4) | +++ (+++ = MIC ≦ 4) |  |  | + (+ = 12 ≦ MIC ≦ 32) | +++ (+++ = MIC ≦ 4) | +++ (+++ = MIC ≦ 4) |  | +++ (+++ = MIC ≦ 4) |  |  |  |  |  | 
13 | Cn1cc(NC(=O)c2cc(NC(=O)c3cc4ccccc4cn3)cn2CCCN2CCCCC2)cc1C(=O)Nc1ccc2cnccc2c1 [Ib-90] | +++ (+++ = MIC ≦ 4) | +++ (+++ = MIC ≦ 4) |  |  | + (+ = 12 ≦ MIC ≦ 32) | +++ (+++ = MIC ≦ 4) | +++ (+++ = MIC ≦ 4) |  | +++ (+++ = MIC ≦ 4) |  |  |  |  |  | 
14 | Cn1cc(NC(=O)c2cc(NC(=O)c3cc4ccccc4cn3)cn2CCCN2CCCC2)cc1C(=O)Nc1ccc2cnccc2c1 [Ib-91] | +++ (+++ = MIC ≦ 4) | +++ (+++ = MIC ≦ 4) |  |  | >32 µg/mL | +++ (+++ = MIC ≦ 4) | +++ (+++ = MIC ≦ 4) |  | +++ (+++ = MIC ≦ 4) |  |  |  |  |  | 
15 | Cn1cc(NC(=O)c2cc(NC(=O)c3cc(NC(=O)c4cc5ccccc5cn4)cn3C)c[nH]2)cc1C(=O)NCCCNC1CCCCC1 [Ib-92] | +++ (+++ = MIC ≦ 4) | +++ (+++ = MIC ≦ 4) |  |  | >32 µg/mL | +++ (+++ = MIC ≦ 4) | +++ (+++ = MIC ≦ 4) |  | +++ (+++ = MIC ≦ 4) |  |  |  |  |  | 
16 | CCN(CC)CCNC(=O)c1cc(NC(=O)c2ccc(NC(=O)c3cc(NC(=O)c4cc5ccccc5cn4)cn3C)cc2)cn1C [Ic-9] | +++ (+++ = MIC ≦ 4) | +++ (+++ = MIC ≦ 4) |  |  | >32 µg/mL | +++ (+++ = MIC ≦ 4) | +++ (+++ = MIC ≦ 4) |  | +++ (+++ = MIC ≦ 4) |  |  |  |  |  | 
17 | CN(C)CCCNC(=O)c1cc(NC(=O)c2ccc(NC(=O)c3cc(NC(=O)c4cc5ccccc5cn4)cn3C)cc2)cn1C [Ic-15] | +++ (+++ = MIC ≦ 4) | +++ (+++ = MIC ≦ 4) |  |  | >32 µg/mL | +++ (+++ = MIC ≦ 4) | >32 µg/mL |  | >32 µg/mL |  |  |  |  |  | 
18 | CN(C)CCNC(=O)c1cc(NC(=O)c2ccc(NC(=O)c3cc(NC(=O)c4cc5ccccc5cn4)cn3C)cc2)cn1C [Ic-16] | +++ (+++ = MIC ≦ 4) | +++ (+++ = MIC ≦ 4) |  |  | >32 µg/mL | +++ (+++ = MIC ≦ 4) | +++ (+++ = MIC ≦ 4) |  | +++ (+++ = MIC ≦ 4) |  |  |  |  |  | 
19 | CCN(CCO)CCNC(=O)c1cc(NC(=O)c2ccc(NC(=O)c3cc(NC(=O)c4cc5ccccc5cn4)cn3C)cc2)cn1C [Ic-18] | +++ (+++ = MIC ≦ 4) | +++ (+++ = MIC ≦ 4) |  |  | >32 µg/mL | +++ (+++ = MIC ≦ 4) | +++ (+++ = MIC ≦ 4) |  | +++ (+++ = MIC ≦ 4) |  |  |  |  |  | 
